# Structures can show the parent of a compound that is named as a salt. Where two headings read alike, the source gives them in different places.
# Assays:
# T47D cells = test: Cell-based assay: anti-proliferative activity, Cell Counting Kit-8, 72 hours (T47D)
# Method in brief: (§1)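 Cellular growth is read by CCK-8 colorimetric kit 72 h after inhibitor addition to seeded cells, and IC50 values are derived from the resulting data; MELK protein levels in these lines are checked beforehand by immunoblotting whole crude lysate.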
# A549 cells = test: Cell-based assay: anti-proliferative activity, Cell Counting Kit-8, 72 hours (A549); conditions: 72 hours
# Method in brief: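 Cell Counting Kit-8 read-out of A549 growth after 72 hours of inhibitor exposure, cells plated in 96-well format. Values reported as IC50.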
# MELK = MELK (Homo sapiens, UniProt Q14680); test: Kinase assay: MELK activity, phosphorylation of FITC-labeled histone H3 peptide measured by IMAP fluorescence polarization; format: biochemical; conditions: read-out: IC50 (μM) (kinase assay)
# Method in brief: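 FP readout: FITC-histone H3 peptide phosphorylation, read 0.5 h (RT) after stopping with 3x volume of IMAP progressive binding solution. Final DMSO 1%.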
# 22Rv1 cells = test: Cell-based assay: anti-proliferative activity, Cell Counting Kit-8, 72 hours (22Rv1); conditions: Homo sapiens, 22Rv1, 72 h
# HT-1197 cells = test: Cell-based assay: anti-proliferative activity, Cell Counting Kit-8, 72 hours (HT-1197, negative control without MELK expression); conditions: HT1197 cells (negative control, no MELK expression), 72 hours
# Method in brief: as §1
# DU4475 cells = test: Cell-based assay: anti-proliferative activity, Cell Counting Kit-8, 72 hours (DU4475)
# [1] = MELK kinase assay, IMAP fluorescence polarization, 50 micro-M ATP
# MELK, sequence (Q14680 whole entry, looked up): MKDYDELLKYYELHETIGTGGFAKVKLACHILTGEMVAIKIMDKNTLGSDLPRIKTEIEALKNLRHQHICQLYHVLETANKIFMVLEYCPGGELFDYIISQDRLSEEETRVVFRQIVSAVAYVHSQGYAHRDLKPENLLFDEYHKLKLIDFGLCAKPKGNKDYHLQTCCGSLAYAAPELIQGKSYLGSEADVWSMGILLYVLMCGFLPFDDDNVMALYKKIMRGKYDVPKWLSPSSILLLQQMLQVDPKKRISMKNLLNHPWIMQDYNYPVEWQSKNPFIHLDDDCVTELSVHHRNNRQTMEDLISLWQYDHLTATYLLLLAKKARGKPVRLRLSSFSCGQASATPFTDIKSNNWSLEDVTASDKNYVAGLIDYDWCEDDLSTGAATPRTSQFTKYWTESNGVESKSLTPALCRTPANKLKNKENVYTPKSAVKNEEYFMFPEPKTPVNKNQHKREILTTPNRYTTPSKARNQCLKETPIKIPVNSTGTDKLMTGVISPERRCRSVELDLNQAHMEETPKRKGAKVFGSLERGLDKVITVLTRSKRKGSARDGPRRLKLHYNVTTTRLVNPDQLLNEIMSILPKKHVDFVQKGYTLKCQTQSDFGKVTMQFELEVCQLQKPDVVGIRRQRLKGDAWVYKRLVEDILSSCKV
SMILES,"IC50 (T47D cells; Homo sapiens, T47D, 72 h) [µM]","IC50 (A549 cells; Homo sapiens, A549, 72 h) [µM]",IC50 (MELK; [1]) [µM],IC50 (22Rv1 cells) [µM],"IC50 (HT-1197 cells; Homo sapiens, HT1197, 72 h) [µM]","IC50 (DU4475 cells; Homo sapiens, DU-4475, 72 h) [µM]",IC50 (MELK) [µM],"IC50 (T47D cells; 72 hours, hydrochloride) [µM]",IC50 (A549 cells; hydrochloride) [µM],IC50 (MELK; hydrochloride) [µM],IC50 (HT-1197 cells; hydrochloride) [µM],IC50 (DU4475 cells; hydrochloride) [µM]
"CC(=O)c1cnc2ccc(-c3cc(F)c(O)c(Cl)c3)cc2c1NC1CCC(C(=O)N2CCN(C)CC2)CC1 (stereo not drawn) [Example 849, 1-(6-(3-chloro-5-fluoro-4-hydroxyphenyl)-4-(4-(4-methylpiperazine-1-carbonyl)cyclohexylamino)quinolin-3-yl)ethanone hydrochloride]",0.47,1.3,0.018,1,4.5,1,,,,,,
CCN(CC)C[C@H]1CC[C@H](Nc2c(C(C)=O)cnc3ccc(-c4cc(F)c(O)c(Cl)c4)cc23)CC1 [Example 794],0.031,0.077,,0.094,0.75,0.074,0.0056,,,,,
"CN(C)CCN1CCC(Nc2c(C(=O)C3CC3)cnc3ccc(-c4cc(Cl)c(O)c(Cl)c4)cc23)CC1 [Example 819, cyclopropyl(6-(3,5-dichloro-4-hydroxyphenyl)-4-(1-(2-(dimethylamino)ethyl)piperidin-4-ylamino)quinolin-3-yl)methanone]",0.38,0.44,0.0024,0.64,3.3,0.17,,,,,,
"CCC(=O)c1cnc2ccc(-c3cc(Cl)c(O)c(OC)c3)cc2c1Nc1ccc(CN(C)C)cc1 [Example 769, 1-(6-(3-chloro-4-hydroxy-5-methoxyphenyl)-4-(4-((dimethylamino)methyl)phenylamino)quinolin-3-yl)propan-1-one]",0.12,0.48,,0.79,2.8,0.14,0.0049,,,,,
"CC(=O)c1c(C)nc2ccc(-c3cc(Cl)c(O)c(Cl)c3)cc2c1Nc1ccc(N2CCN(C)CC2)nc1 [Example 838, 1-(6-(3,5-dichloro-4-hydroxyphenyl)-2-methyl-4-(6-(4-methylpiperazin-1-yl)pyridin-3-ylamino)quinolin-3-yl)ethanone hydrochloride]",17,11,0.097,7.2,25,14,,,,,,
"CC(=O)c1cnc2ccc(-c3cc(F)c(O)c(Cl)c3)cc2c1N[C@H]1CCC[C@@H](CN(C)C)C1 [Example 826, 1-(6-(3-chloro-5-fluoro-4-hydroxyphenyl)-4-((1S,3R)-3-((dimethylamino)methyl)cyclohexylamino)quinolin-3-yl)ethanone hydrochloride]",0.25,0.54,0.0083,0.48,1.9,0.22,,,,,,
CCN(C)C[C@H]1CC[C@H](Nc2c(C(C)=O)cnc3ccc(-c4cc(F)c(O)c(Cl)c4)cc23)CC1 [Example 845],0.063,0.14,0.00204,0.11,1.4,0.069,,,,,,
"CC(=O)c1cnc2ccc(-c3cc(Cl)c(O)c(Cl)c3)cc2c1Nc1ccc(OCCN(C)C)nc1 [Example 852, 1-(6-(3,5-dichloro-4-hydroxyphenyl)-4-(6-(2-(dimethylamino)ethoxy)pyridin-3-ylamino)quinolin-3-yl)ethanone hydrochloride]",0.16,0.29,0.0028,0.55,22,0.088,,,,,,
"CC(=O)c1cnc2ccc(-c3cc(Cl)c(O)c(Cl)c3)cc2c1N[C@H]1C[C@H](CN(C)C)C1 [Example 784, 1-(6-(3,5-dichloro-4-hydroxyphenyl)-4-((1r,3r)-3-((dimethylamino)methyl)cyclobutylamino)quinolin-3-yl)ethanone]",0.6,0.74,,0.95,3.2,0.2,0.0031,,,,,
"COc1cc(-c2ccc3ncc(C(C)=O)c(N[C@H]4CC[C@H](CN5CCC(N)C5)CC4)c3c2)cc(Cl)c1O (stereo partly drawn) [Example 780, 1-(4-(1R,4R)-4-((3-aminopyrrolidin-1-yl)methyl)cyclohexylamino)-6-(3-chloro-4-hydroxy-5-methoxyphenyl)quinolin-3-yl)ethanone hydrochloride]",0.41,0.62,,0.67,3.2,1.5,0.002,,,,,
"CNC1CCN(c2ccc(Nc3c(C(=O)C4CC4)cnc4ccc(-c5cc(F)c(O)c(Cl)c5)cc34)cn2)C1 (stereo not drawn) [Example 789, (6-(3-chloro-5-fluoro-4-hydroxyphenyl)-4-((6-(3-(methylamino)pyrrolidin-1-yl)pyridin-3-yl)amino)quinolin-3-yl)(cyclopropyl)methanone trihydrochloride]",0.039,0.076,,0.077,0.8,0.053,0.0028,,,,,
"CC(=O)c1cnc2ccc(-c3cc(F)c(O)c(Cl)c3)cc2c1N[C@H]1CC[C@H](CN2CCC[C@@H]2CO)CC1 [Example 808, 1-(6-(3-chloro-5-fluoro-4-hydroxyphenyl)-4-(1R,4R)-4-(((R)-2-(hydroxymethyl)pyrrolidin-1-yl)methyl)cyclohexylamino)quinolin-3-yl)ethanone hydrochloride]",0.12,0.22,,0.22,8.2,0.11,0.0065,,,,,
"CCN(C)C[C@H]1CC[C@H](Nc2c(C(C)=O)cnc3ccc(-c4cc(Cl)c(O)c(Cl)c4)cc23)CC1 [Example 817, 1-(6-(3,5-dichloro-4-hydroxyphenyl)-4-((1R,4R)-4-((ethyl(methyl)amino)methyl)cyclohexylamino)quinolin-3-yl)ethanone]",0.097,0.15,0.0014,0.12,11,0.074,,,,,,
"COc1cc(-c2ccc3ncc(C(=O)C4CC4)c(NC4CCN(C5CCNC5)CC4)c3c2)cc(Cl)c1O (stereo not drawn) [Example 764, (6-(3-chloro-4-hydroxy-5-methoxyphenyl)-4-(1-(pyrrolidin-3-yl)piperidin-4-ylamino)quinolin-3-yl)(cyclopropyl)methanone]",0.18,1.3,,0.95,5.3,0.18,0.0029,,,,,
"CC(=O)c1cnc2ccc(-c3cc(F)c(O)c(Cl)c3)cc2c1N[C@H]1CC[C@H](N(C)C)CC1 [Example 763, 1-{6-(3-Chloro-5-fluoro-4-hydroxyphenyl)-4-[trans-4-(dimethylamino)cyclohexylamino]quinolin-3-yl}ethanone]",0.05,0.27,,0.14,1.8,0.093,0.0087,,,,,
"CNC1CCN(c2ccc(Nc3c(C(=O)C4CC4)cnc4ccc(-c5cc(Cl)c(O)c(Cl)c5)cc34)cn2)C1 (stereo not drawn) [Example 804, cyclopropyl(6-(3,5-dichloro-4-hydroxyphenyl)-4-((6-(3-(methylamino)pyrrolidin-1-yl)pyridin-3-yl)amino)quinolin-3-yl)methanone trihydrochloride]",0.088,0.17,,0.1,1.4,0.042,0.002,,,,,
"CC(=O)c1cnc2ccc(-c3cc(F)c(O)c(Cl)c3)cc2c1N[C@H]1CC[C@H](CN2CCNCC2)CC1 [Example 783, 1-(6-(3-chloro-5-fluoro-4-hydroxyphenyl)-4-((trans-4-(piperazin-1-ylmethyl)cyclohexyl)amino)quinolin-3-yl)ethanone dihydrochloride]",0.027,0.2,,0.087,4.2,0.057,0.0088,,,,,
CC(=O)c1cnc2ccc(-c3cc(Cl)c(O)c(Cl)c3)cc2c1N[C@H]1CC[C@H](CN2CCCC(N)C2)CC1 (stereo partly drawn) [Example 810],0.034,0.12,,0.056,2.3,0.044,0.0018,,,,,
"CNC1CCCN(c2ccc(Nc3c(C(C)=O)cnc4ccc(-c5cc(F)c(O)c(Cl)c5)cc34)cn2)C1 (stereo not drawn) [Example 815, 1-(6-(3-chloro-5-fluoro-4-hydroxyphenyl)-4-((6-(3-(methylamino)piperidin-1-yl)pyridin-3-yl)amino)quinolin-3-yl)ethanone trihydrochloride]",0.016,0.041,0.0018,0.034,0.052,0.041,,,,,,
"CN(C)CCNc1ccc(Nc2c(C(=O)C3CC3)cnc3ccc(-c4cc(Cl)c(O)c(Cl)c4)cc23)cn1 [Example 748, cyclopropyl(6-(3,5-dichloro-4-hydroxyphenyl)-4-(6-(2-(dimethylamino)ethylamino)pyridin-3-ylamino)quinolin-3-yl)methanone hydrochloride]",,,,0.1,,,,0.088,0.069,0.0026,1.6,0.032

# From US9120749B2, “Quinoline derivatives and MELK inhibitors containing the same” (ONCOTHERAPY SCIENCE, INC., priority 2010, dated 2015)
